Reference: patent US20250270209A1 (INTERLINE THERAPEUTICS, INC., priority 2022, published 2025)

Legend:
LRRK2 wild type enzyme = LRRK2 wild type enzyme (Homo sapiens, UniProt Q5S007); assay: Biochemical Assay: LRRK2 TR-FRET (LanthaScreen) kinase assay with LRRKtide substrate; conditions: LRRK2 Inhibition, Table 8
Summary of the method: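 Human wild-type LRRK2 (3 nM) preincubated 15 min with compound (11-point, 3-fold, top 10 μM), then reacted 120 min at 23 °C with 400 nM LRRKtide and 25 μM ATP, pH 8.0. Stopped with EDTA; Tb-anti-pLRRKtide TR-FRET read after 30 min.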

[1] = molecular target: T1, wild type LRRK2 overexpressed in recombinant HEK-293T cells (Homo sapiens, UniProt Q5S007); assay: pS935 LRRK2 Cell Assay (HTRF, phospho-LRRK2 Ser935); type: cell-based; conditions: LRRK2 Inhibition, Table 8, 2 hours compound incubation
T1 construct: host or cells: HEK293T (transient transfection with pCMV-LRRK2 WT plasmid)
Summary of the method: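 HEK-293T cells transiently transfected with wild-type LRRK2 for 24 h, plated overnight, then treated 2 h at 37° C with compound (top 10 μM, 3-fold, 9 doses, duplicates, 0.2% DMSO). Lysates probed overnight at 23° C by sandwich HTRF for pSer935; 665/615 nm ratio read.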

Sequence of LRRK2 wild type enzyme (Q5S007 whole entry): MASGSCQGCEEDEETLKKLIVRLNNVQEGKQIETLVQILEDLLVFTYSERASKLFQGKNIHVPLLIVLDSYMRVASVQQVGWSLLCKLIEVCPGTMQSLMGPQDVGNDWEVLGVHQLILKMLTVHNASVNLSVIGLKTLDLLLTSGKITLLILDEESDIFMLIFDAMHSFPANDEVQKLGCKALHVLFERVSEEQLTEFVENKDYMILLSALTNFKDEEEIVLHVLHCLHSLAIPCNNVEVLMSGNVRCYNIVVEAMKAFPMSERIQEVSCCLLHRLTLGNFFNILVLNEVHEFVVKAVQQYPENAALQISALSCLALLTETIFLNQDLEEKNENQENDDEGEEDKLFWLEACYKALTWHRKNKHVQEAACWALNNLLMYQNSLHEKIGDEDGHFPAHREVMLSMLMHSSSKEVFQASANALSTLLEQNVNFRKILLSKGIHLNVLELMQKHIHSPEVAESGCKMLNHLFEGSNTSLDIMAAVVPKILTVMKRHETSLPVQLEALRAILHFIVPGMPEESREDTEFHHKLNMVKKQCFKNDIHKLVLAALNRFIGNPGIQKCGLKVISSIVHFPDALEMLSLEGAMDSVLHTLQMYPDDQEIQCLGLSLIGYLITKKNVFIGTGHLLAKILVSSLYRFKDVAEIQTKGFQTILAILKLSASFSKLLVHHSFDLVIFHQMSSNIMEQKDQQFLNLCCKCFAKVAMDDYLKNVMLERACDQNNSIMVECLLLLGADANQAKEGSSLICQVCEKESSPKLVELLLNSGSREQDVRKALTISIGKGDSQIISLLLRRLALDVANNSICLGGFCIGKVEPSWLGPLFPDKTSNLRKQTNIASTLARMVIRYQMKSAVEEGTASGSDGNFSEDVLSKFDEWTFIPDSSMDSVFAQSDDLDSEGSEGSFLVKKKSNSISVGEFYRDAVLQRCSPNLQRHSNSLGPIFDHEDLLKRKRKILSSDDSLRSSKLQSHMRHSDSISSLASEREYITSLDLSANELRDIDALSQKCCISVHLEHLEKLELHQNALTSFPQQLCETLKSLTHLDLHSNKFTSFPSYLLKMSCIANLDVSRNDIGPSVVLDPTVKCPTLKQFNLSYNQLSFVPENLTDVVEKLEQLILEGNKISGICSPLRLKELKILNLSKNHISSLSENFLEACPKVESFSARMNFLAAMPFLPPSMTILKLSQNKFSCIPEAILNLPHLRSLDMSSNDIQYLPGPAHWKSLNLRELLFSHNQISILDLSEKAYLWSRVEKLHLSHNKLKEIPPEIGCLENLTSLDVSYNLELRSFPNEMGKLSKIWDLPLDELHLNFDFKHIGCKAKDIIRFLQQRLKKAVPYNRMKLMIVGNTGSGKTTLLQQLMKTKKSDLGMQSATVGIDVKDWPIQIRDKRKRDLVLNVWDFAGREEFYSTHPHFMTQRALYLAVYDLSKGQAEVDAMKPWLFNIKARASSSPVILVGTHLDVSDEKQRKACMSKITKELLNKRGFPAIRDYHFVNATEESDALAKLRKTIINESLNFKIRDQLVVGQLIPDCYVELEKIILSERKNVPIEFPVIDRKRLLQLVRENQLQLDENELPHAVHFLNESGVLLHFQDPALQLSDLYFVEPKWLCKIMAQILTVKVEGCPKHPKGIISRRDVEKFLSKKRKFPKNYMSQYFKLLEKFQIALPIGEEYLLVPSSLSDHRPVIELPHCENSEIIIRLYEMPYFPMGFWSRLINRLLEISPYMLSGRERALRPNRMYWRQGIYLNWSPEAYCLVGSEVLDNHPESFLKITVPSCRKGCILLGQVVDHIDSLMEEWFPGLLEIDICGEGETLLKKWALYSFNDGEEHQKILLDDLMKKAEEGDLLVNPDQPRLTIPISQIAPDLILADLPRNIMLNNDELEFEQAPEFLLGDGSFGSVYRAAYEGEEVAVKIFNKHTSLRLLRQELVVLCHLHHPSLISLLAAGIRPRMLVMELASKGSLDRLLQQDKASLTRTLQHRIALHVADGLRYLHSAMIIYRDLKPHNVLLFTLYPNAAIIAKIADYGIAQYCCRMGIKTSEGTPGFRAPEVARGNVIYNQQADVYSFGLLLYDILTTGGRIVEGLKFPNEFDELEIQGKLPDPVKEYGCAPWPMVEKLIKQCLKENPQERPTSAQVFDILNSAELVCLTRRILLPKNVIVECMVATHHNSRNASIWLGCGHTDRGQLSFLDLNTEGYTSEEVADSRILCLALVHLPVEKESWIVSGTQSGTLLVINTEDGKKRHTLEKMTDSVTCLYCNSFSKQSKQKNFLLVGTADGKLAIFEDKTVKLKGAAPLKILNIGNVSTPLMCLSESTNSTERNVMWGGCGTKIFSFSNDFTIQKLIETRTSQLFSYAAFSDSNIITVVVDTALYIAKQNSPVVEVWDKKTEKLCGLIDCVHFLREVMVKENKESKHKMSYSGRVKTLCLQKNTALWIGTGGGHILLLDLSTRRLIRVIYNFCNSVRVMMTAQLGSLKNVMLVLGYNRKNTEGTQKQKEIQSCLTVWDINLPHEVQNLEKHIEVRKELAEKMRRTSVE
T1 sequence (Q5S007 whole entry): as above

Work on `Cc1ccc(NC(=O)Cc2nc3cnc4ccc(C#N)cc4c3n2[C@@H]2CCO[C@H](C)C2)c(C)n1` [Compound 270, N-(2,6-dimethyl-3-pyridyl){3-[(2R,4R)-2-methyltetrahydro-2H-pyran-4-yl]-12-cyano-3,5,8-triazatricyclo[7.4.0.0^2,6]trideca-1,4,6,8,10,12-hexaen-4-yl}acetamide] yielded an IC50 (LRRK2 wild type enzyme) of 0.504 nM and an IC50 [1] of 7.36 nM.
`C[C@@H]1C[C@H](n2c(CC(=O)Nc3ccc(C(F)(F)F)n(C)c3=O)nc3cnc4ccc(C#N)cc4c32)CCO1` [Compound 221, N-[1-methyl-2-oxo-6-(trifluoromethyl)-1,2-dihydro-3-pyridyl]{3-[(2R,4R)-2-methyltetrahydro-2H-pyran-4-yl]-12-cyano-3,5,8-triazatricyclo[7.4.0.0^2,6]trideca-1,4,6,8,10,12-hexaen-4-yl}acetamide] gave an IC50 (LRRK2 wild type enzyme) of 0.526 nM and an IC50 [1] of 5.77 nM.
With `C[C@@H]1C[C@H](n2c(C3CCC(=O)N(CC4CC4)C3)nc3cnc4ccc(C#N)cc4c32)CCO1` (stereo partly drawn) [Compound 50, 2-[1-(cyclopropylmethyl)-6-oxopiperidin-3-yl]-1-[(2R,4R)-2-methyloxan-4-yl]-1H-imidazo[4,5-c]quinoline-8-carbonitrile] the IC50 (LRRK2 wild type enzyme) was 7.5 nM and the IC50 [1] was 875 nM.
Work on `C[C@@H]1C[C@H](n2c(CC(=O)Nc3cccnc3O)nc3cnc4ccc(C#N)cc4c32)CCO1` [Compound 218, N-(2-hydroxy-3-pyridyl){3-[(2R,4R)-2-methyltetrahydro-2H-pyran-4-yl]-12-cyano-3,5,8-triazatricyclo[7.4.0.0^2,6]trideca-1,4,6,8,10,12-hexaen-4-yl}acetamide] yielded an IC50 (LRRK2 wild type enzyme) of 0.45 nM and an IC50 [1] of 83.5 nM.
`C[C@@H]1C[C@H](n2c(CC(=O)NC3(C)CC3)nc3cnc4ccc(C#N)cc4c32)CCO1` [Compound 328, N-1-methylcyclopropyl{3-[(2R,4R)-2-methyltetrahydro-2H-pyran-4-yl]-12-cyano-3,5,8-triazatricyclo[7.4.0.0^2,6]trideca-1(9),2(6),4,7,10,12-hexaen-4-yl}acetamide] showed an IC50 (LRRK2 wild type enzyme) of 1.86 nM and an IC50 [1] of 54.7 nM.
`C[C@@H]1C[C@H](n2c(CC(=O)Nc3ccc(Cl)nc3)nc3cnc4ccc(C#N)cc4c32)CCO1` [Compound 297, N-(6-chloro-3-pyridyl){3-[(2R,4R)-2-methyltetrahydro-2H-pyran-4-yl]-12-cyano-3,5,8-triazatricyclo[7.4.0.0^2,6]trideca-1,4,6,8,10,12-hexaen-4-yl}acetamide] showed an IC50 (LRRK2 wild type enzyme) of 0.225 nM and an IC50 [1] of 3.99 nM.
`COc1nc(C)ncc1NC(=O)Cc1nc2cnc3ccc(C#N)cc3c2n1[C@@H]1CCO[C@H](C)C1` [Compound 248, N-(4-methoxy-2-methyl-5-pyrimidinyl){3-[(2R,4R)-2-methyltetrahydro-2H-pyran-4-yl]-12-cyano-3,5,8-triazatricyclo[7.4.0.0^2,6]trideca-1(9),2(6),4,7,10,12-hexaen-4-yl}acetamide] showed an IC50 (LRRK2 wild type enzyme) of 0.4 nM and an IC50 [1] of 4.2 nM.
In the case of `C[C@@H]1C[C@H](n2c(CC(=O)NC3CCOc4cccnc43)nc3cnc4ccc(Cl)cc4c32)CCO1` (stereo partly drawn) [Compound 362, N-(3,4-dihydro-2H-1-oxa-5-azanaphth-4-yl){3-[(2R,4R)-2-methyltetrahydro-2H-pyran-4-yl]-12-chloro-3,5,8-triazatricyclo[7.4.0.0^2,6]trideca-1(9),2(6),4,7,10,12-hexaen-4-yl}acetamide], the IC50 (LRRK2 wild type enzyme) is reported as 0.553 nM and the IC50 [1] is reported as 10.5 nM.
For `C[C@@H]1C[C@H](n2c(CC3CN(C(=O)c4cnn(C)c4)C3)nc3cnc4ccc(C#N)cc4c32)CCO1` [Compound 60, 2-{[1-(1-methyl-1H-pyrazole-4-carbonyl)azetidin-3-yl]methyl}-1-[(2R,4R)-2-methyloxan-4-yl]-1H-imidazo[4,5-c]quinoline-8-carbonitrile], the IC50 (LRRK2 wild type enzyme) was 4.29 nM and the IC50 [1] was 1550 nM.
Compound `C[C@@H]1C[C@H](n2c([C@@H]3CN(CC4CC4)C(=O)O3)nc3cnc4ccc(C#N)cc4c32)CCO1` [Compound 37, 2-[(5S)-3-(cyclopropylmethyl)-2-oxo-1,3-oxazolidin-5-yl]-1-[(2R,4R)-2-methyloxan-4-yl]-1H-imidazo[4,5-c]quinoline-8-carbonitrile] has an IC50 (LRRK2 wild type enzyme) of 53.1 nM and an IC50 [1] of 3700 nM.
With `C[C@@H]1C[C@H](n2c(C3CC(=O)N(C4CCOCC4)C3)nc3cnc4ccc(C#N)cc4c32)CCO1` (mixture of isomers) [Compound 64, 1-[(2R,4R)-2-methyloxan-4-yl]-2-[1-(oxan-4-yl)-5-oxopyrrolidin-3-yl]-1H-imidazo[4,5-c]quinoline-8-carbonitrile] the IC50 (LRRK2 wild type enzyme) was 3.71 nM and the IC50 [1] was 313 nM.
Work on `Cc1ccc2ncc3nc(CC(=O)NC4CC4)n([C@@H]4CCO[C@H](C)C4)c3c2c1` [Compound 191, N-cyclopropyl-2-{8-methyl-1-[(2R,4R)-2-methyloxan-4-yl]-1H-imidazo[4,5-c]quinolin-2-yl}acetamide] yielded an IC50 (LRRK2 wild type enzyme) of 0.961 nM and an IC50 [1] of 65.6 nM.
`C[C@@H]1C[C@H](n2c(CC(=O)NCC3CCO3)nc3cnc4ccc(C#N)cc4c32)CCO1` (stereo partly drawn) [Compound 149, 2-{8-cyano-1-[(2R,4R)-2-methyloxan-4-yl]-1H-imidazo[4,5-c]quinolin-2-yl}-N-[(oxetan-2-yl)methyl]acetamide] was tested, and the IC50 (LRRK2 wild type enzyme) was 0.715 nM and the IC50 [1] was 74.3 nM.
Compound `C[C@@H]1C[C@H](n2c(C(F)(F)C(=O)NCC3CC3)nc3cnc4ccc(C#N)cc4c32)CCO1` [Compound 334] has an IC50 (LRRK2 wild type enzyme) of 1.34 nM and an IC50 [1] of 26.5 nM.
Work on `C[C@@H]1C[C@H](n2c(CC(=O)NC[C@H]3CCOC3)nc3cnc4ccc(C#N)cc4c32)CCO1` [Compound 172, 2-{8-cyano-1-[(2R,4R)-2-methyloxan-4-yl]-1H-imidazo[4,5-c]quinolin-2-yl}-N-{[(3R)-oxolan-3-yl]methyl}acetamide] yielded an IC50 (LRRK2 wild type enzyme) of 0.567 nM and an IC50 [1] of 37.6 nM.
With `C[C@@H]1C[C@H](n2c(CC(=O)Nc3cccnc3)nc3cnc4ccc(C#N)cc4c32)CCO1` [Compound 320, N-3-pyridyl{3-[(2R,4R)-2-methyltetrahydro-2H-pyran-4-yl]-12-cyano-3,5,8-triazatricyclo[7.4.0.0^2,6]trideca-1(9),2(6),4,7,10,12-hexaen-4-yl}acetamide] the IC50 (LRRK2 wild type enzyme) was 0.571 nM and the IC50 [1] was 6.31 nM.
Work on `C[C@@H]1C[C@H](n2c(CC(=O)NCC3CC3)nc3cnc4ccc(C5CC5)cc4c32)CCO1` [Compound 159, 2-{8-cyclopropyl-1-[(2R,4R)-2-methyloxan-4-yl]-1H-imidazo[4,5-c]quinolin-2-yl}-N-(cyclopropylmethyl)acetamide] yielded an IC50 (LRRK2 wild type enzyme) of 1.65 nM and an IC50 [1] of 94.1 nM.
`Cc1noc(C)c1NC(=O)Cc1nc2cnc3ccc(C#N)cc3c2n1[C@@H]1CCO[C@H](C)C1` [Compound 201, N-(3,5-dimethyl-4-isoxazolyl){3-[(2R,4R)-2-methyltetrahydro-2H-pyran-4-yl]-12-cyano-3,5,8-triazatricyclo[7.4.0.0^2,6]trideca-1,4,6,8,10,12-hexaen-4-yl}acetamide] was tested, and the IC50 (LRRK2 wild type enzyme) was 0.377 nM and the IC50 [1] was 11.6 nM.
Compound `COc1ccnc(C)c1NC(=O)Cc1nc2cnc3ccc(C#N)cc3c2n1[C@@H]1CCO[C@H](C)C1` [Compound 227, N-(4-methoxy-2-methyl-3-pyridyl){3-[(2R,4R)-2-methyltetrahydro-2H-pyran-4-yl]-12-cyano-3,5,8-triazatricyclo[7.4.0.0^2,6]trideca-1,4,6,8,10,12-hexaen-4-yl}acetamide] has an IC50 (LRRK2 wild type enzyme) of 0.359 nM and an IC50 [1] of 14.4 nM.
Compound `C[C@@H]1C[C@H](n2c(C3CCN(S(=O)(=O)C4CC4)CC3)nc3cnc4ccc(C#N)cc4c32)CCO1` [Compound 120, 2-[1-(cyclopropanesulfonyl)piperidin-4-yl]-1-[(2R,4R)-2-methyloxan-4-yl]-1H-imidazo[4,5-c]quinoline-8-carbonitrile] has an IC50 (LRRK2 wild type enzyme) of 1.7 nM and an IC50 [1] of 268 nM.
`C[C@@H]1C[C@H](n2c(CC(=O)NC[C@@H]3CCCO3)nc3cnc4ccc(C#N)cc4c32)CCO1` [Compound 154, 2-{8-cyano-1-[(2R,4R)-2-methyloxan-4-yl]-1H-imidazo[4,5-c]quinolin-2-yl}-N-{[(2S)-oxolan-2-yl]methyl}acetamide] showed an IC50 (LRRK2 wild type enzyme) of 0.674 nM and an IC50 [1] of 39.2 nM.
For `C[C@@H]1C[C@H](n2c(CC(=O)NCc3cc(C4CC4)on3)nc3cnc4ccc(C#N)cc4c32)CCO1` [Compound 161, 2-{8-cyano-1-[(2R,4R)-2-methyloxan-4-yl]-1H-imidazo[4,5-c]quinolin-2-yl}-N-[(5-cyclopropyl-1,2-oxazol-3-yl)methyl]acetamide], the IC50 (LRRK2 wild type enzyme) was 0.356 nM and the IC50 [1] was 4.38 nM.
For `C[C@@H]1C[C@H](n2c([C@H]3CCN(S(=O)(=O)C4CC4)C3)nc3cnc4ccc(C#N)cc4c32)CCO1` [Compound 25, 2-[(3S)-1-(cyclopropanesulfonyl)pyrrolidin-3-yl]-1-[(2R,4R)-2-methyloxan-4-yl]-1H-imidazo[4,5-c]quinoline-8-carbonitrile], the IC50 (LRRK2 wild type enzyme) was 6.13 nM and the IC50 [1] was 563 nM.
In the case of `COc1nccnc1NC(=O)Cc1nc2cnc3ccc(C#N)cc3c2n1[C@@H]1CCO[C@H](C)C1` [Compound 312, N-(3-methoxy-2-pyrazinyl){3-[(2R,4R)-2-methyltetrahydro-2H-pyran-4-yl]-12-cyano-3,5,8-triazatricyclo[7.4.0.0^2,6]trideca-1(9),2(6),4,7,10,12-hexaen-4-yl}acetamide], the IC50 (LRRK2 wild type enzyme) is reported as 0.574 nM and the IC50 [1] is reported as 5.68 nM.
`C[C@@H]1C[C@H](n2c([C@H]3CCN(C(=O)C4CC4)C3)nc3cnc4ccc(C#N)cc4c32)CCO1` [Compound 41, 2-[(3S)-1-cyclopropanecarbonylpyrrolidin-3-yl]-1-[(2R,4R)-2-methyloxan-4-yl]-1H-imidazo[4,5-c]quinoline-8-carbonitrile] gave an IC50 (LRRK2 wild type enzyme) of 9.62 nM and an IC50 [1] of 639 nM.
